Results from US20140158116A1, “INHIBITING TRPA1 FOR THE TREATMENT OF ASTHMA” (Cubist Pharmaceuticals, Inc., priority 2012, published 2014).

Assays:
[1] = tested on: serum biomarkers of hepatotoxicity (ALT, AST, ALP, GGT); assay: Hepatotoxicity serum biomarker study in dogs, oral dose; type: in vivo, dog; details: dogs; 50 mg/kg PO
Protocol: The compound of Formula (Ia) was orally dosed to […] at dose levels of 5, 15 or 50 mg/kg using 30% Sulfobutylether β-cyclodextrin as the vehicle for assessment of safety as measured via serum chemistry biomarkers of hepatotoxicity or bile duct injury FIG. 5A, showing measurements of alanine aminotranferease [ALT], aspartate aminotranferease [AST], alkaline phosphatase [ALP] and gamma-glutamyl transferase [GGT] in the dogs at each dose level (each bar represents a measurement from 1 dog in the study). […] For example, the ALT levels were elevated up to about 60-fold in male dogs and up to about 130-fold in female beagle dogs following a single PO dose of 50 mg/kg.

[2] = Human plasma protein binding by equilibrium dialysis; type: in vitro ADME; details: percentage bound
Protocol: The amount of compound in buffer (free fraction) and the amount of compound associated with the plasma fraction is determined by equilibrium dialysis; the amount of compound bound is expressed as a percentage. (Banker et al., Journal of Pharmaceutical Sciences (2003) 92(5): 967-74.)

hTRPV3 = molecular target: T1, hTRPV3 (Homo sapiens, UniProt Q8NET8); assay: Patch clamp selectivity, hTRPV3; type: cell-based
T1 sequence (Q8NET8 1-790): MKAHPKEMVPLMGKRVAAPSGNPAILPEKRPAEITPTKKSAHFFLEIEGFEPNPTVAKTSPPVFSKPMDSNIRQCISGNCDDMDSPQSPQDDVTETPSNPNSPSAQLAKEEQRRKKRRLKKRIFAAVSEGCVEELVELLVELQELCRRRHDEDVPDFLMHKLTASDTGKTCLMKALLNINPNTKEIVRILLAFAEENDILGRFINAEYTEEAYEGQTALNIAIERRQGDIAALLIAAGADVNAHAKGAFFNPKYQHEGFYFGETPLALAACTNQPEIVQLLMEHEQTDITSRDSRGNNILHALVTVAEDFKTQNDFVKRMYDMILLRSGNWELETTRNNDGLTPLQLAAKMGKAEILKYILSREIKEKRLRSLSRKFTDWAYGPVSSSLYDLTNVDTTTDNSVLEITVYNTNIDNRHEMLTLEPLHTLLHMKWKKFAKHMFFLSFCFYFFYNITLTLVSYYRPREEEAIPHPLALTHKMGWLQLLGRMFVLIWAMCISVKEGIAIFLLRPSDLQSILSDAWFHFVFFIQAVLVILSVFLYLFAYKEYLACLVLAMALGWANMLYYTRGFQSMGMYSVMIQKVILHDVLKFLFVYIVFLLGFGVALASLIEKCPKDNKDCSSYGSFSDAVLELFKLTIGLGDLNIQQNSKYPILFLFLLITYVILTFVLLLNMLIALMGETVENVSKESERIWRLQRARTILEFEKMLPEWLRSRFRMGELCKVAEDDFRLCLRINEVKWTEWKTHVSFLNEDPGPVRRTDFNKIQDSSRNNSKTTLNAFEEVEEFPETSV
Protocol: Data for TRPA1 inhibition and the selectivity of TRPA1 inhibition was obtained by this method for the compound of Formula (Ia) and included in Table 1 and Table 2. All currents were recorded in whole-cell configuration using EPC-9 and EPC-10 amplifiers and Patchmaster software (HEKA). […] The standard pipette solution consisted of 140 mM CsAsp, 10 mM EGTA, 10 mM HEPES, 2.27 mM MgCl2, 1.91 mM CaCl2, 4 mM MgATP, and 0.1-0.3 mM Na2GTP, with pH adjusted to 7.2 with CsOH. In addition, a solution containing 145 mM CsCl, 10 mM HEPES, 10 mM EGTA and 1 mM MgCl2 (pH 7.2 adjusted with CsOH) can be used. The standard bath solution contained 150 mM NaCl, 10 mM HEPES, 10 mM glucose, 4.5 mM KCl, 1 mM EGTA, 3 mM MgCl2, with pH adjusted to 7.4 with NaOH. In some instances, 2 mM CaCl2 was added in place of EGTA and the concentration of MgCl2 was reduced to 1 mM.
Data were collected either by continuous recordings at −60 mV or by applying voltage ramps from a holding potential of 0 mV every 4 s. […] Inward and outward currents were analyzed from the ramps at −80 and 80 mV, respectively. […]
Solutions were switched using a gravity-fed continuous focal perfusion system. […] Temperatures were confirmed using a thermistor (Warner Instruments, TA-29), with temperatures at the recorded cell estimated to be within +/−2° C. of those reported. […]

hTRPA1 = hTRPA1 (Homo sapiens, UniProt O75762); assay: hTrpA1 IC50 measured in 1% RSA (rat serum albumin); type: cell-based
Sequence of hTRPA1 (O75762 whole entry): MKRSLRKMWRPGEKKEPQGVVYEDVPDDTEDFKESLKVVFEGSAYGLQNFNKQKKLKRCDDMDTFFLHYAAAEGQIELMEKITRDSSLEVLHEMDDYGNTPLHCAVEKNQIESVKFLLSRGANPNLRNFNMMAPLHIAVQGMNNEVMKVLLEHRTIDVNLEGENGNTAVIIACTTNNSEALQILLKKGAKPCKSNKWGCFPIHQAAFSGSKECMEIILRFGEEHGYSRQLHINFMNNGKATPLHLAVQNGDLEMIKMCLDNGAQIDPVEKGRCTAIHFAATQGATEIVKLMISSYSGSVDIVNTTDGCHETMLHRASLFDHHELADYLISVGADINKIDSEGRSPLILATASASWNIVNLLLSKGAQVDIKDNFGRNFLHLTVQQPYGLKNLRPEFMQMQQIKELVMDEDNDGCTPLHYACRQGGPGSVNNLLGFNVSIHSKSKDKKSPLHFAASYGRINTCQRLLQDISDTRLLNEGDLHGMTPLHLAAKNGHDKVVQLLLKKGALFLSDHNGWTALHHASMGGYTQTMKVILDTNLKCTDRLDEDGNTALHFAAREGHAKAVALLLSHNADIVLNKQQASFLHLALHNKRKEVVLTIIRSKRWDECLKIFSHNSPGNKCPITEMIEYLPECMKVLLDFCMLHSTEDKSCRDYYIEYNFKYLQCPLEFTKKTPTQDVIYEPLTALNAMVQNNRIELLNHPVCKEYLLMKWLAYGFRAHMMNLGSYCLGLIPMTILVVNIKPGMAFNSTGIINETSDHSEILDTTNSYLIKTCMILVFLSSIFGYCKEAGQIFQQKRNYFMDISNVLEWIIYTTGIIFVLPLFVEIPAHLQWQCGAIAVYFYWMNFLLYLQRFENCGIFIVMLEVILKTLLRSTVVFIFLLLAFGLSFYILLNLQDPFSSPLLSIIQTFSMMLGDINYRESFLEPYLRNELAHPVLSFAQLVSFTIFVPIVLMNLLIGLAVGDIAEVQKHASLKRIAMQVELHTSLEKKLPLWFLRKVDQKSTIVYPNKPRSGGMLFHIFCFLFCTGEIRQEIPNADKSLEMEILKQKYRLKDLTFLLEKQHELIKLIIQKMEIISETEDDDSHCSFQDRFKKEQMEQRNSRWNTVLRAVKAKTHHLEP

fraction unbound [2]: > 0.01
Fold Selectivity Compared to TRPA1 (hTRPV3): >300 fold
IC50 (hTRPV3; 30 micromolar 2-APB, Inward (−80 mV)): > 32 µM
IC50 (hTRPA1): 5.3 µM
Compound: C[C@H]1CCCN1c1ncc(-c2cccc(NC(=O)Cn3cnc4c3c(=O)n(C)c(=O)n4C)n2)cn1 [Formula (Ia)]
effect on serum biomarkers of hepatotoxicity [1]: did not elevate serum biomarkers of hepatotoxicity or acute phase response
